Where two headings read alike, the source gives them in different places.

The fraction unbound is the share of the substance not bound to proteins or other matrix. For orientation: AUC means concentration integrated over time. What is called Cmax is the highest concentration seen after dosing.

Data set [1] can be described thus: in vitro. The following applies: plasma, pH 7.4.
Data set [2] in a line: Pharmacokinetics. The following applies: both, rhesus monkey, sc.
For data set [3] the following is noted: CNO 10 mg/kg IM, monkeys; cited from earlier work.
Data set [4] has as its target human Pgp (MDCK-MDR1) (Homo sapiens, UniProt P08183). Briefly: Bidirectional transport across MDR1-MDCK cell monolayers. In kind it is in vitro ADME. The following applies: CNO 5 μM.
In data set [5] the target is T1, BCRP (MDCK-BCRP) (Homo sapiens, UniProt Q9UNQ0).
T1 sequence (Q9UNQ0 1-655): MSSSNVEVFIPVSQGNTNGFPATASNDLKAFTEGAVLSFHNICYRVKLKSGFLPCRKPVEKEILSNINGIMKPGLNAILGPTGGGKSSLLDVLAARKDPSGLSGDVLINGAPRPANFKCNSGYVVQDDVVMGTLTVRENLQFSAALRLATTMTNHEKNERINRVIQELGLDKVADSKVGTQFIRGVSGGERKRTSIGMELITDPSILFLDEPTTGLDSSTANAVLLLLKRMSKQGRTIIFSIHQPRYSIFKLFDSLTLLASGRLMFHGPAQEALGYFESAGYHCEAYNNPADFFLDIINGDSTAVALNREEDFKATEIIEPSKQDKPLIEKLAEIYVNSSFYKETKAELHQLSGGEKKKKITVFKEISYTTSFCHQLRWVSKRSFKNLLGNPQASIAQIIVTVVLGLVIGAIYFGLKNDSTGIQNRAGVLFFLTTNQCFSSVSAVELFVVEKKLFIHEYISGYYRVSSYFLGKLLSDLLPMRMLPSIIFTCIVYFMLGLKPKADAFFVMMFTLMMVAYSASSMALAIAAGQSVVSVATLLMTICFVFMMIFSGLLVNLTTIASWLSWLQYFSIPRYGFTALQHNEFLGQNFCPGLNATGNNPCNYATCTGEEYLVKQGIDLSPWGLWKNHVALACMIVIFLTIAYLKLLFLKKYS
Briefly: Bidirectional transport across BCRP-MDCK cell monolayers. It counts as in vitro ADME. The following applies: MDCK-BCRP monolayer; CNO 5 μM; 120 min; no inhibitor.

For data set [6] the following is noted: rhesus monkey, in vivo, sc.
A short description of data set [7]: Plasma protein binding by equilibrium dialysis. (In general: In equilibrium dialysis free small molecules cross a membrane that holds back macromolecules.)
Setting [8] is: MDCK-Pgp monolayer, 120 min, no inhibitor.

Chain of human Pgp (MDCK-MDR1) (P08183 whole entry): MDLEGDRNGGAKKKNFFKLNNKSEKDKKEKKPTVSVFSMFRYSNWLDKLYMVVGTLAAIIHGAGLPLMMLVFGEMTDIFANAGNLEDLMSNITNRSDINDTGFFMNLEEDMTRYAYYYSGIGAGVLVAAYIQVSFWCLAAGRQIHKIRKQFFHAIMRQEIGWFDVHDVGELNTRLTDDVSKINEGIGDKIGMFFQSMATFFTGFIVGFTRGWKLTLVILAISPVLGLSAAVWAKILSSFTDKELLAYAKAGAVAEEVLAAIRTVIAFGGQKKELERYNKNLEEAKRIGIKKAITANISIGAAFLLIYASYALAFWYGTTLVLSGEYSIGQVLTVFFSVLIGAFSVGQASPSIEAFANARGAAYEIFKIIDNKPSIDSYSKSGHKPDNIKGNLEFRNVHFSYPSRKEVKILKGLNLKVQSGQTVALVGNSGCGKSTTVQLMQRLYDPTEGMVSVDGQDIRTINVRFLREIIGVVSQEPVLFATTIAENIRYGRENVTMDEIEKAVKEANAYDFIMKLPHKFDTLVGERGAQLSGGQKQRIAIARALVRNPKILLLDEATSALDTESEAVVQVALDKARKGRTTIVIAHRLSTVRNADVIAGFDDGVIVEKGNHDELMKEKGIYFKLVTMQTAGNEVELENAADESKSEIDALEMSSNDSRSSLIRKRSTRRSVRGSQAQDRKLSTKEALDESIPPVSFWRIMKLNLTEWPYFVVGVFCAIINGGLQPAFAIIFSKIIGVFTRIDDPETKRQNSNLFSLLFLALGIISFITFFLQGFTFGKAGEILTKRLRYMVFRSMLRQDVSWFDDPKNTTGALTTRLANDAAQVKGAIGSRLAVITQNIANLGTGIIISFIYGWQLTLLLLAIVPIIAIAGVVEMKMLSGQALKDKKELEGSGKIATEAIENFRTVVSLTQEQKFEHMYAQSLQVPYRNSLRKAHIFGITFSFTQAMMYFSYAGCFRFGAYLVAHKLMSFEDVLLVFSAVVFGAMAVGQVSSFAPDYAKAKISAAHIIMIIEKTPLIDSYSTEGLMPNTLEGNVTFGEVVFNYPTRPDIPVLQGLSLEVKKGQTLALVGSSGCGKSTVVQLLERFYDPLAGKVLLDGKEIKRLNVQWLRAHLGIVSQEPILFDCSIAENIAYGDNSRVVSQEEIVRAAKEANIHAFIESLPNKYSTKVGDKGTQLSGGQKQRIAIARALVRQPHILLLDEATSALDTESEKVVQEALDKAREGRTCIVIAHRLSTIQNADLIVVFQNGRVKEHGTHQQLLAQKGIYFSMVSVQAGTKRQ

Compound `Clc1ccc2c(c1)N=C(N1CCNCC1)c1ccccc1N2` [N-desmethylclozapine] had a fraction unbound at 4 h, 1 μM in data set [1] of 0.11. The Tmax in data set [2] (CSF, 3 mg/kg) amounted to 24 h; in data set [2] (CSF, 10 mg/kg), 24 h; in data set [2] (plasma, 3 mg/kg), 24 h.
For clozapine-N-oxide [CNO], in data set [3], the “Tmax in CSF” value is 1 h and the “average concentration in CSF” value was 9 ng/mL. In data set [4] (setting [8]), the “A-B permeability (Papp)” value came to 0.05 ×10⁻⁶ cm/s and the “B-A permeability (Papp)” value turned out to be 1 ×10⁻⁶ cm/s. The Pgp substrate assessment result in data set [4] (MDCK-Pgp) is reported as “substrate of Pgp”. Moreover, in data set [5], the “A-B permeability (Papp)” value came to 0.07 ×10⁻⁶ cm/s and the “B-A permeability (Papp)” value turned out to be 0.21 ×10⁻⁶ cm/s. In data set [6], the “AUC at 3 mg/kg as share of AUC at 10 mg/kg” value is “approximately 65%”. The AUC in data set [6] (3 mg/kg) is 519 ng·h/mL. Also, in data set [6] (10 mg/kg), the AUC was found to be 795 ng·h/mL, the peak level (Cmax) was 7 µM and the Tmax turned out to be 90 min ^b. For the same compound, the “fu (fraction unbound), PPB” value in data set [7] (1 μM, 4 h at 37 °C, equilibrium dialysis) is 0.43.
In data set [7] (pH 7.4), `CN1CCN(C2=Nc3cc(Cl)ccc3Nc3ccccc32)CC1` [clozapine] showed a fraction unbound at 4 h, 1 μM of 0.05. For the same compound, the Tmax in data set [2] (CSF, 3 mg/kg) was 2.67 h; in data set [2] (CSF, 10 mg/kg), 2.67 h; in data set [2] (plasma, 3 mg/kg), 2.67 h.

The record behind these values is article PMC5522181 (ACS chemical neuroscience, 2017).
